Measured values as given in patent US4051259A, “Phenoxyacetic acid amide” (Les Laboratoires Bruneau & Cie, priority 1975, dated 1977).

Experiments:
rat = assay: anorexigenic activity (ED50) by the method of LeDouarec; type: in vivo; conditions: for ED50: rat, po, read-out: ED50 po (anorexia); for anorexigenic activity (in words): comparison of results within the table
Text: (§1) The toxicity (LD50) has been determined in the mice by the method of Karber and Behrens (Arch. Expl. Pathol. Pharmacol., 1931, 162, 48) and the anorexigenic activity (ED50) in the rat by the method of LeDouarec (J. Pharmacol. Paris 1970, 1, 419-22).

[1] = toxicity (LD50) by the method of Karber and Behrens; type: in vivo, mice; conditions: mouse, in vivo; mice, po
Text: as §1

mice = assay: as above; type: in vivo; conditions: for toxicity (in words): comparison of results within the table
Text: as §1

| Compound | ED50 (rat) [mg/kg] | LD50 [1] [mg/kg] | other results |
| --- | --- | --- | --- |
| CNc1ccc(OCC(=O)NC(C)Cc2cccc(C(F)(F)F)c2)cc1 (stereo not drawn) [LB 367] | 12 | 800 |  |
| CCNc1ccc(OCC(=O)NC(C)Cc2cccc(C(F)(F)F)c2)cc1 (stereo not drawn) [LB 359] | 15 | 1600 |  |
| CCCNc1ccc(OCC(=O)NC(C)Cc2cccc(C(F)(F)F)c2)cc1 (stereo not drawn) [LB 368] | 20 | > 1600 |  |
| CCCCNc1ccc(OCC(=O)NC(C)Cc2cccc(C(F)(F)F)c2)cc1 (stereo not drawn) [LB 448] | 20 | > 2000 |  |
| CC(C)CNc1ccc(OCC(=O)NC(C)Cc2cccc(C(F)(F)F)c2)cc1 (stereo not drawn) [LB 369] | 25 | > 2000 |  |
| CCCCCCNc1ccc(OCC(=O)NC(C)Cc2cccc(C(F)(F)F)c2)cc1 (stereo not drawn) [LB 446] | 45 | > 4000 |  |
| CCCCCNc1ccc(OCC(=O)NC(C)Cc2cccc(C(F)(F)F)c2)cc1 (stereo not drawn) [LB 411, 1-methyl-2-(m-trifluoromethylphenyl)-ethylamide of p-pentylaminophenoxyacetic acid] | 10 | 4000 | anorexigenic activity (in words) (rat): particularly high; anorexigenic activity (in words) (rat; listed as n-pentyl derivative): outstanding anorexia-inducing properties; intensity of intoxication symptoms (mice; at doses near the LD50): relatively weak; intoxication symptoms (mice; at doses near the LD50, first hour, then later): hypomotility and hypothermia during the first hour than tremor and convulsions; toxicity (in words) (mice): very low; toxicity (in words) (mice; listed as n-pentyl derivative): low toxicity; doses at which intoxication symptoms appear (mice; doses relative to LD50): only at doses near of the LD50 |
